Measurements from BindingDB's records for patent US11964973 (Bristol-Myers Squibb, 2024).

Assays:
[1] = molecular target: Diacylglycerol kinase zeta (Homo sapiens, UniProt Q13574); test: In Vitro DGK Inhibition Assay
Experimental: (§1) The DGKα and DGKζ reactions were performed using either extruded liposome (DGKα and DGKζ LIPGLO assays). […] Luminescence was recorded using an EnVision microplate reader.

[2] = molecular target: Diacylglycerol kinase alpha (Homo sapiens, UniProt P23743); test: In Vitro DGK Inhibition Assay
Experimental: as §1

Sequence of Diacylglycerol kinase zeta (Q13574 as listed by the source): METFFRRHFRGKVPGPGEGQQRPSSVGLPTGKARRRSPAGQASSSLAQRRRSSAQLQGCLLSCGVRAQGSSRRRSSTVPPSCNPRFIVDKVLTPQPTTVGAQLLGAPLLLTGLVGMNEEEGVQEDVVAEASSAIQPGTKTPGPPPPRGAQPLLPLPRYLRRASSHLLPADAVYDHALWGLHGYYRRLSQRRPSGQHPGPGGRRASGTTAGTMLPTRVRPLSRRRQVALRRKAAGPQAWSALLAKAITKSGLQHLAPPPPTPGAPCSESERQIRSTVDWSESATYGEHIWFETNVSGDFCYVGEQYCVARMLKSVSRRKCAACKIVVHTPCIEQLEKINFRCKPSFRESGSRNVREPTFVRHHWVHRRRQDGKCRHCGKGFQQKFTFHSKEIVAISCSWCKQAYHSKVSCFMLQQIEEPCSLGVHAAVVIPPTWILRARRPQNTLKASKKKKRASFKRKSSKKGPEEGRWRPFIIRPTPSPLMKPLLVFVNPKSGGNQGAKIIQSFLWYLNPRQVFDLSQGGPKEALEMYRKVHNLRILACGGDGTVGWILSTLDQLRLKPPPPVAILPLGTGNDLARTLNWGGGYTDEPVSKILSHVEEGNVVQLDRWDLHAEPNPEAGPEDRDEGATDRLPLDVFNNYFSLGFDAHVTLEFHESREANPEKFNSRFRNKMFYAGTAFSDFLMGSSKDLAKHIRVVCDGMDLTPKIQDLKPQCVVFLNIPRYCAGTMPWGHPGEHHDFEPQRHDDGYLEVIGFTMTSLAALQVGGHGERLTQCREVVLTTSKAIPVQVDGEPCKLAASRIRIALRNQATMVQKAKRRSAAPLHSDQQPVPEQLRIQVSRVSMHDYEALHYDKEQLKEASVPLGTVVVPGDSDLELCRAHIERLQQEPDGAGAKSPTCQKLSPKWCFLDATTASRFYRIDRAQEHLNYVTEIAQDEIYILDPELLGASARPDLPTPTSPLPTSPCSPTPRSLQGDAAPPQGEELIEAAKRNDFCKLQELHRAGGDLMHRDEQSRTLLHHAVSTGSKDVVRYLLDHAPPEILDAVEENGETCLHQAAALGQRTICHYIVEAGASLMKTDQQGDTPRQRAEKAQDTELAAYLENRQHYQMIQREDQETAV
Sequence of Diacylglycerol kinase alpha (P23743 whole entry): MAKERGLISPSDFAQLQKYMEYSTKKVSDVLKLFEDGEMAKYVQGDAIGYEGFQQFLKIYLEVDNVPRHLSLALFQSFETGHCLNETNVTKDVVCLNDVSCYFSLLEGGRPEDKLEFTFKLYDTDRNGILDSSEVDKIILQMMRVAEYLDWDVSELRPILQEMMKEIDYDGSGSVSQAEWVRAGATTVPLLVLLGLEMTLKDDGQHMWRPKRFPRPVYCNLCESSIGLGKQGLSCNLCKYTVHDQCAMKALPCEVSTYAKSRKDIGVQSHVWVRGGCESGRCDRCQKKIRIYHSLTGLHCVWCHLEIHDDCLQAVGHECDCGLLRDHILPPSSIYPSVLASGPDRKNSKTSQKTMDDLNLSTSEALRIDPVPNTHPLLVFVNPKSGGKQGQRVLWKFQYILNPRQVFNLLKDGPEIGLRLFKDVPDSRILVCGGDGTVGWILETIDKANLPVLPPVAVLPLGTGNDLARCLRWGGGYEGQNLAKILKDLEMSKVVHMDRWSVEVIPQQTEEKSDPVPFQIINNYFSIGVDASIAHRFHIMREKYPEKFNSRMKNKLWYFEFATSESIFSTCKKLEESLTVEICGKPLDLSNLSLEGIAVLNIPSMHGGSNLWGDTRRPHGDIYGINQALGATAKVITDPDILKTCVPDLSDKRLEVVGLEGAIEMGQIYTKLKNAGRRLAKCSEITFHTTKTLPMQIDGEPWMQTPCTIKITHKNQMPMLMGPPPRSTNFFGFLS

Q: For `CCO[C@H]1CN(c2cc(=O)n(C)c3ccc(C#N)nc23)CC[C@@H]1Oc1ccc(OC(C)C)cn1` (relative stereo) [US11964973, Example 397], which IC50 [1] is on record?
A: The IC50 was 420 nM.

Q: Which IC50 [2] does the source give for `Cn1c(=O)cc(N2CCC(Oc3ccc(C(C)(C)C)cc3)CC2)c2cc(C#N)ccc21` [US11964973, Example 53] here?
A: The IC50 was 770 nM.

Q: What about the IC50 [1] of the same compound?
A: The IC50 was 2000 nM.
